Assay results taken from the supplement of paper PMC10307832.

Columns and labels:
Assay in all cases: relative viability (nuclei count vs DMSO), 5 days (fraction); higher = more cells survive
Salubrinal + Pictilisib = compound: O=C(/C=C/c1ccccc1)NC(NC(=S)Nc1cccc2cccnc12)C(Cl)(Cl)Cl [Salubrinal] + CS(=O)(=O)N1CCN(Cc2cc3nc(-c4cccc5[nH]ncc45)nc(N4CCOCC4)c3s2)CC1 [Pictilisib] (partner 1 µM)
Method in brief: (§1)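 Lung cancer cell lines, seeded in 1536-well plates, were treated the following day by pin tool with a single drug or with five library-drug doses (not always all listed) in √10 steps on top of a fixed anchor-drug dose. Cells were fixed and nuclei stained in one step after 5 days, and nuclei were counted. Relative viability is the nuclei count for treated wells divided by that for vehicle wells, reported as medians of duplicate plates.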

Salubrinal + Palbociclib = compound: O=C(/C=C/c1ccccc1)NC(NC(=S)Nc1cccc2cccnc12)C(Cl)(Cl)Cl [Salubrinal] + CC(=O)c1c(C)c2cnc(Nc3ccc(N4CCNCC4)cn3)nc2n(C2CCCC2)c1=O [Palbociclib] (partner 0.5 µM)
Method in brief: as §1

Salubrinal + Olaparib = compound: O=C(/C=C/c1ccccc1)NC(NC(=S)Nc1cccc2cccnc12)C(Cl)(Cl)Cl [Salubrinal] + O=C(c1cc(Cc2n[nH]c(=O)c3ccccc23)ccc1F)N1CCN(C(=O)C2CC2)CC1 [Olaparib] (partner 8 µM)
Method in brief: as §1

[1] = compound: Cc1ccc2nc(NCCN)c3ncc(C)n3c2c1 + CC(=O)c1c(C)c2cnc(Nc3ccc(N4CCNCC4)cn3)nc2n(C2CCCC2)c1=O [Palbociclib] (partner 0.5 µM)
Method in brief: as §1

Cell Line | relative viability (Salubrinal + Pictilisib; first compound 0.08 µM) | relative viability (Salubrinal + Pictilisib; first compound 0.253 µM) | relative viability (Salubrinal + Pictilisib; first compound 0.8 µM) | relative viability (Salubrinal + Pictilisib; first compound 2.53 µM) | relative viability (Salubrinal + Pictilisib; first compound 8 µM) | relative viability (Salubrinal + Palbociclib; first compound 0.08 µM) | relative viability (Salubrinal + Palbociclib; first compound 0.253 µM) | relative viability (Salubrinal + Palbociclib; first compound 0.8 µM) | relative viability (Salubrinal + Palbociclib; first compound 2.53 µM) | relative viability (Salubrinal + Palbociclib; first compound 8 µM) | relative viability (Salubrinal + Olaparib; first compound 0.08 µM) | relative viability (Salubrinal + Olaparib; first compound 0.253 µM) | relative viability (Salubrinal + Olaparib; first compound 0.8 µM) | relative viability (Salubrinal + Olaparib; first compound 2.53 µM) | relative viability (Salubrinal + Olaparib; first compound 8 µM) | relative viability ([1]; first compound 0.04 µM) | relative viability ([1]; first compound 0.1265 µM) | relative viability ([1]; first compound 0.4 µM) | relative viability ([1]; first compound 1.265 µM) | relative viability ([1]; first compound 4 µM)
NCI-H23 | 0.511 | 0.583 | 0.548 | 0.442 | 0.486 | 0.635 | 0.387 | 0.598 | 0.46 | 0.501 | 0.359 | 0.233 | 0.36 | 0.31 | 0.309 | 0.501 | 0.562 | 0.437 | 0.469 | 0.309
NCI-H322M | 0.476 | 0.541 | 0.578 | 0.539 | 0.498 | 0.528 | 0.445 | 0.547 | 0.483 | 0.518 | 0.806 | 0.783 | 0.766 | 0.675 | 0.728 | 0.506 | 0.491 | 0.512 | 0.468 | 0.542
NCI-H358 | 0.328 | 0.455 | 0.356 | 0.309 | 0.373 | 0.154 | 0.137 | 0.123 | 0.109 | 0.138 | 0.817 | 0.434 | 0.724 | 0.558 | 0.523 | 0.122 | 0.121 | 0.123 | 0.145 | 0.131
NCI-H441 | 0.479 | 0.432 | 0.705 | 0.534 | 0.294 | 0.222 | 0.189 | 0.313 | 0.23 | 0.201 | 0.732 | 0.448 | 0.675 | 0.542 | 0.514 | 0.251 | 0.271 | 0.181 | 0.26 | 0.248
NCI-H460 | 0.261 | 0.296 | 0.398 | 0.482 | 0.518 | 0.202 | 0.158 | 0.184 | 0.145 | 0.105 | 0.541 | 0.606 | 0.514 | 0.355 | 0.368 | 0.114 | 0.152 | 0.147 | 0.204 | 0.0833
NCI-H520 | 0.376 | 0.212 | 0.338 | 0.302 | 0.316 | 0.25 | 0.225 | 0.23 | 0.21 | 0.271 | 0.334 | 0.361 | 0.325 | 0.322 | 0.338 | 0.233 | 0.222 | 0.215 | 0.212 | 0.243
NCI-H647 | 0.298 | 0.421 | 0.421 | 0.501 | 0.427 | 0.56 | 0.37 | 0.39 | 0.431 | 0.347 | 0.72 | 0.372 | 0.685 | 0.63 | 0.453 | 0.41 | 0.412 | 0.405 | 0.413 | 0.296
NCI-H650 | 0.678 | 1.1 | 0.968 | 0.916 | 0.842 | 0.346 | 0.3 | 0.355 | 0.332 | 0.298 | 0.438 | 0.45 | 0.474 | 0.385 | 0.381 | 0.368 | 0.316 | 0.258 | 0.304 | 0.332
NCI-H661 | 0.434 | 0.196 | 0.443 | 0.384 | 0.569 | 0.424 | 0.436 | 0.412 | 0.412 | 0.398 | 0.753 | 0.538 | 0.76 | 0.73 | 0.758 | 0.423 | 0.452 | 0.407 | 0.439 | 0.477
NCI-H727 | 0.318 | 0.312 | 0.433 | 0.197 | 0.359 | 0.672 | 0.585 | 0.656 | 0.605 | 0.691 | 0.804 | 0.581 | 0.815 | 0.699 | 0.662 | 0.648 |  | 0.603 | 0.691 | 0.722
NCI-H838 | 0.361 | 0.408 | 0.496 | 0.435 | 0.282 | 0.225 | 0.244 | 0.218 | 0.247 | 0.214 | 0.896 | 0.542 | 0.832 | 0.789 | 0.716 | 0.216 | 0.233 | 0.233 | 0.223 | 0.264
NCI-H1355 | 0.366 | 0.433 | 0.45 | 0.426 | 0.425 | 0.423 | 0.472 | 0.412 | 0.402 | 0.364 | 0.775 | 0.903 | 0.75 | 0.766 | 0.643 | 0.46 | 0.4 | 0.406 | 0.409 | 0.376
NCI-H1395 | 0.621 | 0.651 | 0.609 | 0.603 | 0.504 | 0.638 | 0.648 | 0.591 | 0.62 | 0.587 | 0.445 | 0.448 | 0.411 | 0.466 | 0.437 | 0.647 | 0.613 | 0.597 | 0.546 | 0.557
NCI-H1437 | 0.449 | 0.484 | 0.415 | 0.417 | 0.328 | 0.321 | 0.334 | 0.327 | 0.315 | 0.322 | 0.673 | 0.547 | 0.665 | 0.614 | 0.543 | 0.3 | 0.315 | 0.296 | 0.248 | 0.287
NCI-H1650 | 0.536 | 0.491 | 0.635 | 0.581 | 0.536 | 0.314 | 0.297 | 0.334 | 0.366 | 0.375 | 0.941 | 0.705 | 0.811 | 0.751 | 0.804 | 0.303 | 0.375 | 0.324 | 0.349 | 0.226
NCI-H1651 | 0.822 | 0.486 | 0.667 |  | 0.423 | 0.561 | 0.479 | 0.564 | 0.513 | 0.508 | 0.189 | 0.181 | 0.208 | 0.152 | 0.183 | 0.545 | 0.515 | 0.518 | 0.512 | 0.512
